Like-named read-outs stand apart in the source and are kept apart here.
Assays:
[1] = tested on: bloodstream form T.b. brucei wild type; assay: T. brucei antiproliferating assay, wild type; type: cell-based; conditions: means from 4 experiments ± SD
Procedure: The BSF of T. brucei parasites were seeded at 1 × 10^3 mL^−1 in 200 μL of growth medium containing different concentrations of nitroheterocycle. Where appropriate, induction of the TbNTR was carried out by adding tetracycline (1 μg/mL). After incubation for 3 days at 37 °C, 20 μL of Alamar blue was added to each well and the plates incubated for a further 16 h. The cell density of each culture was determined as described before and the IC50 established.

[2] = tested on: bloodstream form T.b. brucei recombinant parasites expressing wild type (-tet) or elevated (+tet) levels of TbNTR; assay: microbe, parasite or virus in culture; type: cell-based; conditions: for IC50: Trypanosoma brucei; for Ratio –tet/+tet: ratio of IC50 values -tet/+tet
Procedure: The BSF of T. brucei parasites were seeded at 1 × 10^3 mL^−1 in 200 μL of growth medium containing different concentrations of nitroheterocycle. Where appropriate, induction of the TbNTR was carried out by adding tetracycline (1 μg/mL). After incubation for 3 days at 37 °C, 20 μL of Alamar blue was added to each well and the plates incubated for a further 16 h. The cell density of each culture was determined as described before [20] and the IC50 established.

[3] = tested on: transgenic T. cruzi parasites expressing firefly luciferase; type: in vivo, Balb/c mice; conditions: for parasite load after 10 days of treatment: acute murine model, p < 0.0001; for parasitic level after 5-day treatment: compared to untreated control
Procedure: A fast luminescence assay was used in an acute infected murine model, in which transgenic T. cruzi parasites expressing firefly luciferase were injected in 5 week-old Balb/c mice. Mice were injected with D-luciferin before imaging. Groups of 5 mice/group were treated i.p. for 10 consecutive days with each compound, at 13 or 15 mg/kg/day. […] The mean ratio of parasite levels was calculated after 5 and 10 days of treatment.
For in vivo studies, a Brazilian strain trypomastigotes from transgenic T. cruzi parasites expressing firefly luciferase were used as described before. Briefly, parasites (10^5 trypomastigotes) were injected in 5 week-old Balb/c mice (Taconic) and three days later mice were anesthesized by inhalation of isofluorane, followed by an injection with 150 mg/kg of D-luciferin potassium-salt in PBS. Mice were imaged 5–10 min after injection of luciferin with an IVIS 100 (Xenogen, Alameda, CA) and the data acquisition and analysis were performed with the software LivingImage (Xenogen) as described before. Treatment with test compounds started 4 days post infection at 13 or 15 mg/kg/day × 10 days, given i.p. The vehicle control was 2% methylcellulose +0.5% Tween 80 and groups of 5 mice/group were used. Mice were imaged after 5 and 10 days of treatment. The ratio of parasite levels was calculated for each animal dividing the luciferase signal after treatment by the luciferase signal on the first imaging (before treatment). Mean values of all animals in each group ± SD were used for plotting.

[4] = tested on: T.b. rhodesiense, strain STIB 900 trypomastigotes; assay: In vitro activity against T. b. rhodesiense; type: cell-based; conditions: for IC50: Trypanosoma brucei, read-out: T.b.r. IC50; for SI (T.b.r.): IC50 in L6 cells/IC50 in T.b. rhodesiense; for fold more potent against T. b. rhodesiense than the corresponding acetamide: propanamide vs acetamide analog; for anti-HAT activity class (TDR criteria): T. b. rhodesiense
Procedure: (§1) Compounds in Table 1 were screened for anti-parasitic activity against three trypanosomatids: T. cruzi, T. b. rhodesiense and Leishmania donovani and compared with previously made analogs shown in orange and designated with a. […] In addition, compounds were tested for toxicity in L6 rat skeletal myoblasts, the host cells for T. cruzi amastigotes, in order to calculate a selectivity index for each parasite [SI = IC50L6/IC50parasite] (Table 1). The TDR (Special Programme for Research and Training in Tropical Diseases, World Health Organization) criteria were adopted to interpret antiparasitic activity and selectivity.
(§2) In vitro activity against T. cruzi, T. b. rhodesiense, L. donovani and cytotoxicity assessment using L6 cells (rat skeletal myoblasts) was determined using a 96-well plate format as previously described. Data were analyzed with the graphic program Softmax Pro (Molecular Devices, Sunnyvale, CA, USA), which calculated IC50 values by linear regression from the sigmoidal dose inhibition curves.

[5] = tested on: L. donovani axenic, strain MHOM-ET-67/L82 amastigotes; design: method as in PMID 26344593, PMID 25580906; conditions: cited from earlier work; for IC50: previously evaluated compounds (orange, designated a), read-out: L.d. IC50
[6] = tested on: T.b. rhodesiense, strain STIB 900 trypomastigotes; design: method as in PMID 26344593, PMID 25580906; conditions: cited from earlier work; for IC50: previously evaluated compounds (orange, designated a), read-out: T.b.r. IC50; for anti-HAT activity class (TDR criteria): T. b. rhodesiense, previously evaluated acetamides
[7] = tested on: L6 cells (rat skeletal myoblasts); design: method as in PMID 26344593, PMID 25580906; conditions: previously evaluated compounds (orange, designated a); read-out: Cyt. L6 IC50; cited from earlier work
[8] = tested on: T. cruzi, strain Tulahuen C4 amastigotes; conditions: cited from earlier work; for Bnz/comp: fold potency relative to Bnz; for IC50: previously evaluated compounds (orange, designated a), read-out: T. c. IC50
[9] = Cytotoxicity in the host L6 cells; type: cell-based, rat; conditions: rat, L6 cells (rat skeletal myoblasts); cytotoxicity in host L6 cells; read-out: Cyt. L6 IC50
Procedure: as §1, §2

[10] = tested on: T. cruzi, strain Tulahuen C4 amastigotes; assay: In vitro activity against T. cruzi; type: cell-based; conditions: for SI (T. c.): IC50 in L6 cells/IC50 in T. cruzi; for IC50: Trypanosoma cruzi, T. cruzi Tulahuen C4 amastigotes, means of 2 to 3 measurements, SD < 5%, read-out: T. c. IC50; for Bnz/comp: fold antichagasic potency relative to Bnz (T. cruzi IC50 ratio)
Procedure: (§3) The concentration of compound that inhibits parasite growth by 50% (IC50) was calculated from dose response curves for each parasite (Table 1). In addition, compounds were tested for toxicity in L6 rat skeletal myoblasts, the host cells for T. cruzi amastigotes, in order to calculate a selectivity index for each parasite [SI = IC50L6/IC50parasite]
(§4) In vitro activity against T. cruzi, T. b. rhodesiense, L. donovani and cytotoxicity assessment using L6 cells (rat skeletal myoblasts) was determined using a 96-well plate format as previously described [37]. Data were analyzed with the graphic program Softmax Pro (Molecular Devices, Sunnyvale, CA, USA), which calculated IC50 values by linear regression from the sigmoidal dose inhibition curves.

[11] = tested on: L. donovani axenic, strain MHOM-ET-67/L82 amastigotes; assay: In vitro activity against L. donovani; type: cell-based; conditions: for IC50: Leishmania donovani, L. donovani axenic amastigotes MHOM-ET-67/L82, means of 2 to 3 measurements, SD < 5%, read-out: L.d. IC50; for SI (L.d.): IC50 in L6 cells/IC50 in L. donovani
Procedure: as §3, §4

[12] = read-out: IC50 value T.b. brucei TbNTR (+tet)
[13] = read-out: IC50 value T.b. brucei TbNTR (-tet)
[14] = IC50 L6/IC50 parasite, previously evaluated compounds
[15] = Trypanosoma brucei, read-out: IC50 value T.b. brucei Wild type, bloodstream form
[16] = T.b. rhodesiense STIB 900 trypomastigotes, means of 2 to 3 measurements, SD < 5%

Structure (SMILES) | IC50 [2, 12] [nM] | IC50 [2, 13] [nM] | IC50 [1, 15] [nM] | IC50 [9] [nM] | SI (T.b.r.) [4] | IC50 [4, 16] [nM] | melting point | IC50 [10] [nM] | Bnz/comp [10] | IC50 [11] [nM] | also measured
CC1CS(=O)(=O)CCN1/N=C/c1ccc([N+](=O)[O-])o1 (stereo not shown) [nfx, Nifurtimox, reference compound] | 869 ± 46 | 6360 ± 119 | – | – | – | – | – | – | – | – | IC50 ([1]; Trypanosoma brucei, bloodstream form, read-out: IC50 value T.b. brucei Wild type): 3980 ± 150 nM; Ratio –tet/+tet [2]: 7.3
O=C(Cn1ccnc1[N+](=O)[O-])NCc1ccccc1 [Bnz, Benznidazole, reference compound] | – | – | – | – | – | – | – | – | – | – | parasite load after 10 days of treatment ([3]; 15 mg/kg/day i.p. x 10 days): undetectable levels; parasitic level after 5-day treatment ([3]; 15 mg/kg/day i.p.): Statistically significant reduction in parasitic level
Nc1nc(N)nc(Nc2ccc([As]3SCC(CO)S3)cc2)n1 (stereo not shown) [Melars., Melarsoprol, reference compound] | – | – | – | – | – | – | – | – | – | – | IC50 [4]: 9 ± 1 nM
O=C(Cn1cnc([N+](=O)[O-])n1)Nc1ccc(Oc2ccccc2)cc1 [Compound 8a] | – | – | – | – | – | – | – | – | – | – | SI (L.d.) [5, 14]: 339; IC50 [5]: 271 nM; IC50 [6]: 2720 nM; IC50 [7]: 92000 nM; SI (T. c.) [8, 14]: 1416; Bnz/comp ([8]; previously evaluated compounds): 31; IC50 [8]: 65 nM
O=C(CCn1cnc([N+](=O)[O-])n1)Nc1ccc(Oc2ccccc2)cc1 [Compound 8, 3-(3-Nitro-1H-1,2,4-triazol-1-yl)-N-(4-phenoxyphenyl)propanamide] | 410 ± 10 | 1470 ± 30 | 140 ± 10 | 31600 | 203 | 156 | 108 to 110 °C | 79 | 28 | 2330 | fold more potent against T. b. rhodesiense than the corresponding acetamide [4]: 17.4 fold; SI (T. c.) [10]: 398
CN(C(=O)Cn1ccnc1[N+](=O)[O-])c1ccc(C(F)(F)F)cc1 [Compound 3, N-methyl-2-(2-nitro-1H-imidazol-1-yl)-N-(4-(trifluoromethyl)phenyl)acetamide] | – | – | – | 189000 | 1.9 | 97700 | 45 to 47 °C | 49400 | – | 47700 | anti-HAT activity class (TDR criteria) [4]: inactive; antichagasic activity class (TDR criteria) ([10]; T. cruzi): moderately active (IC50 between 4.0 and 60 μM); SI (L.d.) [11]: 3.96
O=C(Cn1cnc([N+](=O)[O-])n1)Nc1cccc(OCc2ccccc2)c1 [Compound 11a] | – | – | – | – | – | – | – | – | – | – | IC50 [5]: 3360 nM; anti-HAT activity class (TDR criteria) [6]: moderately active (IC50 between 0.5 and 6.0 μM); IC50 [6]: 4860 nM; IC50 [7]: 68400 nM; Bnz/comp ([8]; previously evaluated compounds): 17
O=C(CCn1cnc([N+](=O)[O-])n1)Nc1cccc(-c2ccccc2)c1 [Compound 10, N-([1,1′-biphenyl]-3-yl)-3-(3-nitro-1H-1,2,4-triazol-1-yl)propanamide] | 230 ± 20 | 5580 ± 620 | 6660 ± 920 | 36200 | 134 | 270 | 174 to 176 °C | 80 | 28 | 3550 | fold more potent against T. b. rhodesiense than the corresponding acetamide [4]: 214 fold; SI (T. c.) [10]: 452; fold more potent against T. cruzi than the acetamide analog ([10]; propanamide vs acetamide analog): 2.2 fold; SI (L.d.) [11]: 10.2
O=C(Cn1cnc([N+](=O)[O-])n1)Nc1cccc(-c2ccccc2)c1 [Compound 10a] | – | – | – | – | – | – | – | – | – | – | IC50 [7]: 45300 nM
O=C(CCn1cnc([N+](=O)[O-])n1)Nc1ccc(Oc2ccc(F)cc2)cc1 [Compound 7, N-(4-(4-fluorophenoxy)phenyl)-3-(3-nitro-1H-1,2,4-triazol-1-yl)propanamide] | 330 ± 30 | 680 ± 70 | ~650 | 23400 | – | 167 | – | 40 | 55 | 1180 | IC50 ([1]; read-out: IC50 value T.b. brucei Wild type, bloodstream form): 570 ± 50 nM; toxicity symptoms in treated mice ([3]; 13 mg/kg/day i.p. x 10 days): No toxicity symptoms were observed; parasite load after 10 days of treatment ([3]; 13 mg/kg/day i.p. x 10 days): undetectable levels; parasitic level after 5-day treatment ([3]; 13 mg/kg/day i.p.): Statistically significant reduction in parasitic level
O=C(CCn1cnc([N+](=O)[O-])n1)Nc1cc(-c2ccc(F)cc2)on1 [Compound 12, N-(5-(4-fluorophenyl)isoxazol-3-yl)-3-(3-nitro-1H-1,2,4-triazol-1-yl)propanamide] | 400 | 1610 ± 100 | 760 ± 100 | > 289000 | >201 | 1440 | 215 °C (dec.) | 364 | 6 | 7790 | anti-HAT activity class (TDR criteria) [4]: moderately active (IC50 between 0.5 and 6.0 μM); fold more potent against T. b. rhodesiense than the corresponding acetamide [4]: 5.6 fold; SI (T. c.) [10]: >794; SI (L.d.) [11]: >37; antileishmanial activity class (TDR criteria) ([11]; L. donovani): inactive; Ratio –tet/+tet [2]: 4.1
O=C(Cn1cnc([N+](=O)[O-])n1)NCc1ccc(C(F)(F)F)cc1 [Compound 2a] | – | – | – | – | – | – | – | – | – | – | IC50 [5]: 10400 nM; fold more potent against T. b. rhodesiense than 2 ([4]; compared with N-methyl acetamide 2): 5.8 fold; anti-HAT activity class (TDR criteria) [6]: inactive; IC50 [6]: 6470 nM; IC50 [8]: 970 nM

— paper PMC5049494, “Nitrotriazole-based acetamides and propanamides with broad spectrum antitrypanosomal activity” (European Journal of Medicinal Chemistry, 2016)
